# Results from US12365686B2, “Compound as porcupine inhibitor and use thereof” (JIANGSU KANION PHARMACEUTICAL CO., LTD., priority 2019, dated 2025).
# Where a name gives a salt, the structure may show the parent alone.
# How the values were obtained:
# [1] = system: STF reporter gene for WNT pathway (Porcupine of the Wnt signaling pathway); assay: Inhibitory activity on Super-Top-Flash (STF) reporter gene; type: cell-based; details: HEK293 STF and L wnt3A cells 1:1, 24 hours, Bright-Glo
# Protocol: 1. Assay of Inhibitory Activity on Super-Top-Flash (STF) Reporter Gene
# HEK293 STF and L wnt3A cells were planted at a ratio of 1:1 in a white 96-well plate with 80 μL of cell suspension per well, which contained 20,000 HEK293 STF cells and 20,000 L wnt3A cells. The cell plate was placed in a carbon dioxide incubator for culture overnight.
# The assay compound was serially diluted 5-fold with a discharge gun to the 8th concentration, that is, from 400 μM to 5.12 nM, in duplicate. 78 μL of medium was added to the middle plate, and then 2 μL of the serially diluted compound was transferred to each well of the middle plate according to the corresponding position. After mixing, 20 μL of the mixture was transferred to each well of the cell plate. The cell plate was placed in a carbon dioxide incubator for 24 hours.
# 100 μL of Promega Bright-Glo reagent was added to each well of the cell plate, and the cell plate was incubated at room temperature for 10 minutes to stabilize the luminescence signal. A multi-label analyzer was used to read results.
# The original data of the multi-label analyzer was used for calculation, and the value of IC50 can be obtained by curve fitting. Table 1 provides data of the inhibitory activity of the compounds of the present disclosure on the Wnt signaling pathway.
# Capan-2 cells = assay: Anti-proliferative activity on Capan-2 cells; type: cell-based; details: Homo sapiens, Capan-2, 120 h; 5 days, CellTiter-Glo
# Protocol: 2. Assay of Anti-Proliferative Activity on Capan-2 Cells
# Capan-2 cells were planted in a white 96-well plate with 80 μL of cell suspension per well, which contained 5000 Capan-2 cells. The cell plate was placed in a carbon dioxide incubator for culture overnight.
# The assay compound was serially diluted 3-fold with a discharge gun to the 9th concentration, that is, from 200 μM to 30 nM, in duplicate. 78 μL of medium was added to the middle plate, and then 2 μL of the serially diluted compound was transferred to each well of the middle plate according to the corresponding position. After mixing, 20 μL of the mixture was transferred to each well of the cell plate. The cell plate was incubated in a carbon dioxide incubator for 5 days. Another cell plate was prepared, and read on the day of drug addition. The signal value was used as the maximum value (The value of Max in the equation below) in data analysis. 25 μL of chemiluminescence detection reagent for cell viability was added to each well of this cell plate, and this cell plate was incubated at room temperature for 10 minutes to stabilize the luminescence signal. A multi-label analyzer was used to read results.
# After the cell plate was cultured for 5 days, 25 μL of Promega CellTiter-Glo reagent was added to each well of the cell plate. The cell plate was incubated at room temperature for 10 minutes to stabilize the luminescence signal. A multi-label analyzer was used to read results.
# The value of IC50 can be obtained by curve fitting. Table 2 provides the inhibitory activity of the compounds of the present disclosure on Capan-2 cell proliferation.
# [2] = system: human pancreatic cancer Capan-2 xenograft tumor; assay: In vivo drug efficacy on Capan-2 transplanted tumor in nude mice; details: BID, Capan-2 Xenograft model
# Protocol: 3. Assay of In Vivo Drug Efficacy on Capan-2 Transplanted Tumor in Nude Mice
# Capan-2 cells were cultured in McCoy's 5A medium, containing 10% fetal bovine serum FBS, in a 37° C. incubator with 5% CO2. Tumor cells were collected after passaging and growing to a suitable concentration and during the logarithmic growth phase. The cells resuspended in McCoy's 5A medium were counted and the cell suspension was adjusted to a concentration of 2×10^7/mL for inoculation.
# Establishment of human pancreatic cancer Capan-2 xenograft tumor. Cells were collected and the concentration was adjusted to 2×10^7 (resuspend with McCoy's 5A medium to a cell suspension containing 50% Martigel). Under aseptic conditions, 0.1 mL of tumor cells was injected subcutaneously into the right back of the mouse, and the number of cells inoculated per mouse was 2×10^6. After the tumor was grown to a certain size, digital vernier calipers was used to measure the length (a) and width (b) of the tumor, and the tumor volume was calculated. The calculation formula of tumor volume (TV) was: TV=a×b^2/2.
# Capan-2 tumor cells were inoculated. When the tumor was grown to about 150 cubic millimeters, mice were divided into groups with 6 mice in each group. The day of grouping was regarded as day 0, and the drug was administered on the day of grouping. During the assay, the animal's body weight and tumor size were measured twice a week, and the animal's clinical symptoms were observed and recorded every day. For each administration, the most recently weighed animal body weight was referred to.
# The evaluation index of anti-tumor activity is relative tumor proliferation rate T/C (%), wherein T/C (%)>40% means ineffective, and T/C (%)<40% and statistically P<0.05 means effective. The calculation formula of T/C (%) is: T/C (%)=(TRTV/CRTV)×100%. TRTV is relative tumor volume of the treatment group, and CRTV is relative tumor volume of the negative control group. TGI (%)^b tumor inhibition rate=(average tumor volume or weight of negative control group-average tumor volume or weight of administration group)/average tumor volume or weight of negative control group×100%. TGI (%)^a=[(1−(average tumor volume of a certain administration group at the time of measurement-average tumor volume of the administration group at the beginning of the administration))/(average tumor volume of vehicle control group at the time of measurement-average tumor volume of the vehicle control group at the beginning of the administration)]×100%.
# [3] = Pharmacokinetic evaluation of compounds in mice; type: in vivo; details: mouse, plasma, male CD-1 mice; for clearance / bioavailability / half-life / Vd: IV 0.5 mg/kg; for bioavailability / AUC(0-t): PO 2.5 mg/kg; for half-life: read-out: T1/2 IV (converted); for Vd: read-out: Vdss; for AUC(0-t): read-out: AUC0-last PO; for Cmax: single dose, route not stated (IV 0.5 mg/kg, PO 2.5 mg/kg)
# Protocol: Assay 4: Pharmacokinetic Evaluation of Compounds
# Assay purpose: Pharmacokinetics of compounds in […] mice was assayed.
# CD-1 mice (male, 7-9 weeks old, Shanghai Slack)
# The pharmacokinetic characteristics of rodents after intravenous (IV) and oral (PO) administration of compounds were assayed by standard protocols. In the assay, mice were given a single intravenous injection and oral administration. The vehicle for intravenous injection was water. The oral vehicle was 0.5% hypromellose. Four male CD-1 mice were used in this project. Two mice were administered intravenously at a dose of 0.5 mg/kg, and plasma samples were collected at 0 h (before administration) and 0.083, 0.25, 0.5, 1, 2, 4, 8, and 24 h after administration. The other two mice were orally administered by gavage at a dose of 2.5 mg/kg, and plasma samples were collected at 0 h (before administration) and 0.25, 0.5, 1, 2, 4, 8, and 24 h after administration. Whole blood samples within 24 hours were collected, and centrifuged at 3000 g for 15 minutes. The supernatant was separated to obtain a plasma sample, and protein was precipitated by adding 4 times volume of acetonitrile solution containing internal standard. The mixture was centrifuged to obtain a supernatant, and an equal volume of water was added to the obtained supernatant. The mixture was then centrifuged to obtain a supernatant for injection. The blood drug concentration was quantitatively analyzed by LC-MS/MS analysis method, and pharmacokinetic parameters were calculated, such as peak concentration (Cmax), clearance rate (CL), half-life (T1/2), […] (Vdss), area under the drug-time curve (AUC0-last), and bioavailability (F), etc.
# The assay results are shown in Table 4: The compounds of the present disclosure have good pharmacokinetic properties.
IC50 [1] [nM],clearance [3] [mL/min/kg],bioavailability [3] [%],half-life [3] [h],Vd [3] [L/kg],AUC(0-t) [3] [µM·h],Cmax [3] [nM],Compound,IC50 (Capan-2 cells) [nM],"T/C % ([2]; 5 mg/Kg, 31 days) [%]","TGI % ([2]; 5 mg/Kg, 31 days) [%]",T/C % ([2]; 2.5 mg/Kg) [%],TGI % ([2]; 2.5 mg/Kg) [%]
0.12,5.05,76.3,2.23,0.633,16.5,3030,Cc1cc(-c2ncc(CNc3nccn4c(-c5ccccc5)cnc34)cc2C)ccn1 [Compound 1],0.71,21.58,96.7,,
0.52,5.75,98.8,2.5,0.666,16.2,2580,Cc1cc(-c2ncc(CNc3nccn4c(-c5cc(F)cc(F)c5)cnc34)cc2C)ccn1 [Compound 30 (hydrochloride)],0.71,25.31,84.93,40.18,66.67
